Test results: patent US6414153B1, “1-phenylpydrrolidin-2-ones and -thiones and 1-(4-pyridyl)pydrrolidin-2-ones and -thiones which are useful in the treatment of inflammatory disease” (Boehringer Ingelheim Pharmaceuticals, Inc., priority 1999, dated 2002)

Legend:
[1] = molecular target: T1, LFA-1 (CD18/CD11a) binding to ICAM-1 (Homo sapiens, UniProt P05107+P20701); experiment: Assay to Determine Inhibition of LFA-1 Binding to ICAM-1; conditions: immunoaffinity purified LFA-1 on plate-bound sICAM-1, 37° C. for 1 h, dose-response curve
T1 construct: endogenous in cells; host or cells: LFA-1: endogenous, immunopurified from human JY or SKW3 cell lysates. sICAM-1: made in house, secreted from transfected CHO DUX cells
Description: This assay protocol is designed to study the direct antagonism, by a test compound, of the interaction of the CAM, ICAM-1 with the Leukointegrin CD18/CD11a (LFA-1).
After collection and neutralization of fractions from the TS2/4 column, samples are pooled and precleared with Protein G agarose.
An expression vector is created with a hamster dihydrofolate reductase gene, a neomycin-resistance marker, and the coding region of the sICAM-1 construct described above, along with the promoter, splice signals, and polyadenylation signal of the SV40 early region. The recombinant plasmid is transfected into CHO DUX cells using standard calcium phosphate methods. Cells are passaged in selective media (G418) and colonies secreting sICAM-1 are amplified using methotrexate. sICAM-1 is purified from serum-free media using traditional non-affinity chromatographic techniques, including ion exchange and size exclusion chromatography.
LFA-1 binding to ICAM-1 is monitored by first incubating sICAM-1 at 40 μg/mL in Dulbecco's phosphate buffered saline with calcium and magnesium, additional 2 mM MgCl2 and 0.1 mM PMSF (Diluting Buffer) in a 96-well plate for 30 min at room temperature. Plates are then blocked by the addition of 2% (w/v) bovine serum albumin in Diluting Buffer for 37° C. for 1 h. Blocking solution is removed from wells, and test compounds are diluted and then added followed by the addition of approximately 25 ng of immunoaffinity purified LFA-1. The LFA-1 is incubated in the presence of test compound and ICAM-1 at 37° C. for 1 h. Wells are washed 3 times with Diluting Buffer. The bound LFA-1 is detected by the addition of a polyclonal antibody directed against a peptide corresponding to the CD18 cytoplasmic tail in a 1:100 dilution with Diluting Buffer and 1% BSA and allowed to incubate for 45 min at 37° C. Wells are washed 3 times with Diluting Buffer and the bound polyclonal antibody is detected by the addition of a 1:4000 dilution of horse radish peroxidase conjugated to goat immunoglobulin directed against rabbit immunoglobulin. This reagent is allowed to incubate for 20 min at 37° C., wells are washed as above and the substrate for the horse radish peroxidase is added to each well to develop a quantitative colorimetric signal proportional to the amount of LFA-1 bound to sICAM-1. […] The lack of the addition of LFA-1 to the binding assay is used as a background control for all samples. A dose-response curve is obtained for all test compounds.

T1 sequence (P20701 26-1170): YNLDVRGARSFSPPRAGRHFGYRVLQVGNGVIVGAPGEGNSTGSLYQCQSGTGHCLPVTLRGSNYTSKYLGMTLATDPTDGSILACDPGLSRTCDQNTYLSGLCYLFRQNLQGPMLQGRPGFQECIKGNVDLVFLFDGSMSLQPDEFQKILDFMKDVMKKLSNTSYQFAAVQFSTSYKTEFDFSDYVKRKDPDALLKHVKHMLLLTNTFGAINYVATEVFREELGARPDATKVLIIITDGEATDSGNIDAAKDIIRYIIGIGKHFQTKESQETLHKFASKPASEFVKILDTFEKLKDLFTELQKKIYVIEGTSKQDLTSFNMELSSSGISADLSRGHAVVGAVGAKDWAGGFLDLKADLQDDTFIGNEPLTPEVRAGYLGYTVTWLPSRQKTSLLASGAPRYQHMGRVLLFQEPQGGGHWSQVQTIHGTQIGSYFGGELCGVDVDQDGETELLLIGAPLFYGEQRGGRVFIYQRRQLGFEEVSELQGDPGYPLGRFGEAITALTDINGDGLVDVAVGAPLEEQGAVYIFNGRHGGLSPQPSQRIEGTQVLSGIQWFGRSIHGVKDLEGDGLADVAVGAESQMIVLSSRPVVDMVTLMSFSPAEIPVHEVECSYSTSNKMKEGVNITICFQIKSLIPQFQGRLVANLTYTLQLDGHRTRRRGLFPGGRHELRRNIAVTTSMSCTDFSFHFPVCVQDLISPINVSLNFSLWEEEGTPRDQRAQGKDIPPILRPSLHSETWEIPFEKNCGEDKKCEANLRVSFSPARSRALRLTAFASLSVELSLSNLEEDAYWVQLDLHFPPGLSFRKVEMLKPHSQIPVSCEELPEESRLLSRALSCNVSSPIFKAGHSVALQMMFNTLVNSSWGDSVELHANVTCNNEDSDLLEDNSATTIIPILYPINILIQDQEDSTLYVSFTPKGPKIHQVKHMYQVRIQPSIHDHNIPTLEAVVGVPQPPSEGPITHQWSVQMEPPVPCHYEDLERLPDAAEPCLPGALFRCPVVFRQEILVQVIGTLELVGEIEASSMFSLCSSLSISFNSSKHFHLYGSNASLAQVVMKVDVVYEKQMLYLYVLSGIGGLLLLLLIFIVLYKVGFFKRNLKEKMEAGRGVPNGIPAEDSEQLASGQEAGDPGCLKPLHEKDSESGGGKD
T1 sequence (P05107 23-769): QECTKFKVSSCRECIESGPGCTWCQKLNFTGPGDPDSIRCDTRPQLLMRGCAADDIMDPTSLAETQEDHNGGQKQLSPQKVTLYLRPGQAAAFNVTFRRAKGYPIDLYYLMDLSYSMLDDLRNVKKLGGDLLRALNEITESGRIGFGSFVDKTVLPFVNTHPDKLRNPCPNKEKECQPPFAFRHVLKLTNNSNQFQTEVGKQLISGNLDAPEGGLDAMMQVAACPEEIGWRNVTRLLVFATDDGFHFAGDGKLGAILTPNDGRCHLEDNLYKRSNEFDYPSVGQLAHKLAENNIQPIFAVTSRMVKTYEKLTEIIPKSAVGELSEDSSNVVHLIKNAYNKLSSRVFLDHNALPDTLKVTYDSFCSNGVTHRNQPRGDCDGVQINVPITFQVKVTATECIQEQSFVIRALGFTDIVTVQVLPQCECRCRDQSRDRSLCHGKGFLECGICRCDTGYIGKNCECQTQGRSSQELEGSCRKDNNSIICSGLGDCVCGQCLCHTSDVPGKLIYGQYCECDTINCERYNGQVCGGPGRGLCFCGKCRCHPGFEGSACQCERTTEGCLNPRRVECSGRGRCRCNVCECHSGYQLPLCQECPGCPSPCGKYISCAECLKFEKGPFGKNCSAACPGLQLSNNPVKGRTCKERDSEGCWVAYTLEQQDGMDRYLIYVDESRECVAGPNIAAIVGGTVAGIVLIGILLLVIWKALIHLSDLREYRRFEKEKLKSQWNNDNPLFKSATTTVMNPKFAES

Kd [1] [nM] | melting point [°C] | Compound
> 10000 | 139 to 142 | O=C1C(Cc2ccc(Br)cc2)c2ccccc2N1c1cc(Cl)cc(Cl)c1 (centres unmarked) [Example 1, 3-(4-Bromobenzyl)-1-(3,5-dichlorophenyl)-1,3-dihydroindol-2-one]
> 10000 | – | CC1(Cc2ccc(Br)cc2)C(=O)N(c2cc(Cl)cc(Cl)c2)c2ccccc21 (centres unmarked) [Example 2, 3-(4-Bromobenzyl)-1-(3,5-dichlorophenyl)-3-methyl-1,3-dihydro-indol-2-one]
375 | – | CC1(Cc2ccc(Br)cc2)C(=O)N(c2cc(Cl)cc(Cl)c2)c2ncccc21 (centres unmarked) [Example 3, 3-(4-Bromobenzyl)-1-(3,5-dichlorophenyl)-3-methyl-1,3-dihydropyrrolo[2,3-b]pyridin-2-one]
3530 | – | CC1(Cc2ccc(C#N)cc2)C(=O)N(c2cc(Cl)cc(Cl)c2)c2ncccc21 (centres unmarked) [Example 5, 3-(4-cyanobenzyl)-1-(3,5-dichlorophenyl)-3-methyl-1,3-dihydropyrrolo[2,3-b]pyridin-2-one]
1790 | 225 to 227 | CC1(Cc2ccc(Br)cc2)C(=O)N(c2cc(Cl)cc(Cl)c2)c2cccc(O)c21 (centres unmarked) [Example 6, 3-(4-bromobenzyl)-1-(3,5-dichlorophenyl)-4-hydroxy-3-methyl-1,3-dihydroindol-2-one]
2710 | 178 to 179 | O=C1C(Cc2ccc(Br)cc2)c2cc(F)ccc2N1c1cc(Cl)cc(Cl)c1 (centres unmarked) [Example 7, 3-(4-bromobenzyl)-1-(3,5-dichlorophenyl)-5-fluoro-1,3-dihydroindol-2-one]
4890 | 264 to 266 | O=C(O)c1ccc2c(c1)N(c1cc(Cl)cc(Cl)c1)C(=O)C2Cc1ccc(Br)cc1 (centres unmarked) [Example 8, 3-(4-bromobenzyl)-1-(3,5-dichlorophenyl)-1,3-dihydroindol-2-one-6-carboxylic acid]
705 | 138 to 140 | COc1cccc2c1C(Cc1ccccc1)C(=O)N2c1cc(Cl)cc(Cl)c1 (centres unmarked) [Example 9, 3-benzyl-1-(3,5-dichlorophenyl)-4-methoxy-1,3-dihydroindol-2-one]
1080 | 142 to 144 | COc1cccc2c1C(Cc1cccc(Br)c1)C(=O)N2c1cc(Cl)cc(Cl)c1 (centres unmarked) [Example 10, 3-(3-bromobenzyl)-1-(3,5-dichlorophenyl)-4-methoxy-1,3-dihydroindol-2-one]
2540 | 225 to 227 | CC1(Cc2cccc(Br)c2)C(=O)N(c2cc(Cl)cc(Cl)c2)c2cccc(O)c21 (centres unmarked) [Example 11, 3-(3-bromobenzyl)-1-(3,5-dichlorophenyl)-4-hydroxy-3-methyl-1,3-dihydroindol-2-one]
1310 | 181 to 185 | O=C1C(Cc2ccccc2)c2c(O)cccc2N1c1cc(Cl)cc(Cl)c1 (centres unmarked) [Example 12, 3-benzyl-1-(3,5-dichlorophenyl)-4-hydroxy-1,3-dihydroindol-2-one]
> 10000 | 118 to 119 | COc1ccc2c(c1)C(Cc1ccccc1)C(=O)N2c1cc(Cl)cc(Cl)c1 (centres unmarked) [Example 13, 3-benzyl-1-(3,5-dichlorophenyl)-5-methoxy-1,3-dihydroindol-2-one]
> 10000 | 232 to 235 | O=C1C(Cc2ccccc2)c2cc(O)ccc2N1c1cc(Cl)cc(Cl)c1 (centres unmarked) [Example 14, 3-benzyl-1-(3,5-dichlorophenyl)-5-hydroxy-1,3-dihydroindol-2-one]
4970 | 109 to 111 | O=C1C(Cc2ccccc2)c2ccccc2N1c1cc(Cl)cc(Cl)c1 (centres unmarked) [Example 15, 3-benzyl-1-(3,5-dichlorophenyl)-1,3-dihydroindol-2-one]
1440 | 165 to 166.5 | CC1(Cc2ccccc2)C(=O)N(c2cc(Cl)cc(Cl)c2)c2cccc(O)c21 (centres unmarked) [Example 16, 3-benzyl-1-(3,5-dichlorophenyl)-4-hydroxy-3-methyl-1,3-dihydroindol-2-one]
917 | 203 to 208 | O=C1C(Cc2ccc(Br)cc2)c2c(O)cccc2N1c1cc(Cl)cc(Cl)c1 (centres unmarked) [Example 17, 3-(4-bromobenzyl)-1-(3,5-dichlorophenyl)-4-hydroxy-1,3-dihydroindol-2-one]
